Results from patent US20240189316A1, “DEUTERATED ANALOGS OF ETIFOXINE AND METHODS OF ADMINISTRATION WITHOUT AUTOINDUCTION OF METABOLISM” (Gaba Therapeutics Inc., priority 2022, published 2024).

Tests used:
[1] = Stability in human liver microsomes; assay type: in vitro ADME; details: for half-life: read-out: T½
[2] = Stability in rat liver microsomes; assay type: in vitro ADME; details: for half-life: read-out: T½
[3] = Stability in mouse liver microsomes; assay type: in vitro ADME; details: for half-life: read-out: T½
[4] = cited from earlier work
[5] = Phase 1 multiple-ascending dose study, plasma pharmacokinetics in healthy subjects; assay type: in vivo, human; parameters: Geometric mean trough concentration: unit not given here
Procedure: The first dose of study drug was given on Day 1. On Days 1 through 6, subjects subsequently received two (q12h) oral doses of study drug each day. A final single dose of study drug was given on Day 7. Each dose of study drug was given with a 240 mL glass of water at the end of ingestion of a standard meal. The meal was provided 30 minutes before dosing and was completed within 30 minutes or less. On Day 1 and Day 7, subjects were required to fast for 8 hours before the morning meal dose and for 2 hours post dose (water was freely available during this time).

[6] = Plasma concentration-time profile following 50 mg/kg GRX-917 and etifoxine in rats (FIG. 1); assay type: in vivo, rat

## CCNC1=Nc2ccc(Cl)cc2C(C)(c2ccccc2)O1 (stereo not shown) [Etifoxine, 6-chloro-2-(ethylamino)-4-methyl-4-phenyl-4H-3,1-benzoxazine]
[1]
  microsomal CLint: 309 µL/min/mg
  half-life: 22 min
[2]
  microsomal CLint: 915 µL/min/mg
  half-life: 8 min
[3]
  microsomal CLint: 657 µL/min/mg
  half-life: 11 min
[4]; continued dosing over time
  Auto-induction of CYP enzyme(s) on continued dosing: exhibits an auto-induction effect
[4]; humans
  Half-life in humans: 240 to 360 min

## [2H]C([2H])([2H])C([2H])([2H])NC1=Nc2ccc(Cl)cc2C(C)(c2ccccc2)O1 (racemic) [Deuterated Etifoxine, 6-chloro-N-(ethyl-d5)-4-methyl-4-phenyl-4H-3,1-benzoxazin-2-amine]
[1]
  microsomal CLint: 170 µL/min/mg
  half-life: 41 min
[2]
  microsomal CLint: 503 µL/min/mg
  half-life: 14 min
[3]
  microsomal CLint: 464 µL/min/mg
  half-life: 15 min
[5]; 100 mg bid
  Induction of metabolism: did not induce metabolism
[5]; 100 mg q12 h, Day 1
  Geometric mean trough concentration: 11.6
[5]; 100 mg q12 h, Day 2
  Geometric mean trough concentration: 36.1
[5]; 100 mg q12 h, Day 4
  Geometric mean trough concentration: 39.3
[5]; 100 mg q12 h, Day 5
  Geometric mean trough concentration: 31.9
[5]; 100 mg q12 h, Day 6
  Geometric mean trough concentration: 34.0
[5]; 100 mg q12 h, Day 7 (12-hr post-dose)
  Geometric mean trough concentration: 27.1
[5]; 100 mg q12 h, Day 7 (pre-dose)
  Geometric mean trough concentration: 27.7
[5]; 150 mg bid (twice daily)
  Induction of metabolism: induces metabolism
[5]; 150 mg q12 h, Day 1
  Geometric mean trough concentration: 28.1
[5]; 150 mg q12 h, Day 2
  Geometric mean trough concentration: 43.8
[5]; 150 mg q12 h, Day 4
  Geometric mean trough concentration: 44.5
[5]; 150 mg q12 h, Day 5
  Geometric mean trough concentration: 39.2
[5]; 150 mg q12 h, Day 6
  Geometric mean trough concentration: 37.7
[5]; 150 mg q12 h, Day 7 (12-hr post-dose)
  Geometric mean trough concentration: 31.4
[5]; 150 mg q12 h, Day 7 (pre-dose)
  Geometric mean trough concentration: 33.3
[5]; 200 mg q12 h, Day 1
  Geometric mean trough concentration: 42.8
[5]; 200 mg q12 h, Day 2
  Geometric mean trough concentration: 72.3
[5]; 200 mg q12 h, Day 4
  Geometric mean trough concentration: 67.2
[5]; 200 mg q12 h, Day 5
  Geometric mean trough concentration: 62.4
[5]; 200 mg q12 h, Day 6
  Geometric mean trough concentration: 53.7
[5]; 200 mg q12 h, Day 7 (12-hr post-dose)
  Geometric mean trough concentration: 51.4
[5]; 200 mg q12 h, Day 7 (pre-dose)
  Geometric mean trough concentration: 58.9
[5]; 300 mg q12 h, Day 1
  Geometric mean trough concentration: 54.9
[5]; 300 mg q12 h, Day 2
  Geometric mean trough concentration: 87.4
[5]; 300 mg q12 h, Day 4
  Geometric mean trough concentration: 71.0
[5]; 300 mg q12 h, Day 5
  Geometric mean trough concentration: 70.0
[5]; 300 mg q12 h, Day 6
  Geometric mean trough concentration: 66.3
[5]; 300 mg q12 h, Day 7 (12-hr post-dose)
  Geometric mean trough concentration: 60.4
[5]; 300 mg q12 h, Day 7 (pre-dose)
  Geometric mean trough concentration: 63.0
[5]; Day 7, statistical analysis
  Tmax dependence on dose: independent of dose
[5]; both sexes, human, plasma, oral, Day 7, read-out: Geometric mean t1/2
  half-life: 38.8 to 82.1 h
[5]; both sexes, human, plasma, single and multiple oral doses of 100-300 mg q12h, post-dose, read-out: Median Tmax
  Tmax: 120 to 211 min
[5]; renal elimination
  Fraction of dose excreted as deuterated etifoxine: < 0.004%
[6]
  AUC as compared to etifoxine: approximately 3 fold
